Calls of active or inactive are those of the source. The rule behind the calls is not given here.
How the values were obtained:
[1] = target: T1, Peptidyl-prolyl cis-trans isomerase FKBP5 (Homo sapiens) (UniProt Q13451); test: Binding affinity to 15N-labeled FKBP51 (1 to 140 residues) (unknown origin) expressed in Escherichia coli OD2N assessed as induction of chemical shift perturbations at Ile87 residues by two-dimensional 1H/15N HSQC NMR spectroscopy
T1 sequence (whole entry): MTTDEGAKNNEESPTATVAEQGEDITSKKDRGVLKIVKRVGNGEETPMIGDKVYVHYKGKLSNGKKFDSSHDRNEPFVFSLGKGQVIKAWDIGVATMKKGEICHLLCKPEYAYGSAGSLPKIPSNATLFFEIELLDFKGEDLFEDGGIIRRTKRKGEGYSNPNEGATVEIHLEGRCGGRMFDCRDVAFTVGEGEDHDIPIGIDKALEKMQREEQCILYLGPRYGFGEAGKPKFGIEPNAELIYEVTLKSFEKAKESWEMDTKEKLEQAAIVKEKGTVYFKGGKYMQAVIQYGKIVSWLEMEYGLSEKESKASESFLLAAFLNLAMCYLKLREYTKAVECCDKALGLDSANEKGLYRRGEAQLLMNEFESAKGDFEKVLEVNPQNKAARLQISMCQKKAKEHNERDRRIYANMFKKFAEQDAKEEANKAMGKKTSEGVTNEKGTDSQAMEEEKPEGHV

[2] = target: T2, Peptidyl-prolyl cis-trans isomerase FKBP5 (Homo sapiens, UniProt Q13451); test: Binding affinity to 15N-labeled FKBP51 (1 to 140 residues) (unknown origin) expressed in Escherichia coli OD2N by two-dimensional 1H/15N HSQC NMR spectroscopy
T2 sequence (Q13451 whole entry): T1 sequence (whole entry)

[3] = target: T1, Peptidyl-prolyl cis-trans isomerase FKBP5 (Homo sapiens); test: Binding affinity to 15N-labeled FKBP51 (1 to 140 residues) (unknown origin) expressed in Escherichia coli OD2N assessed as induction of chemical shift perturbations at Leu81, Gly82, Gln85, Ile87, Ala89, Trp90, Asp91, Met97, and Glu110 residues by two-dimensional 1H/15N HSQC NMR spectroscopy
[4] = target: T1, Peptidyl-prolyl cis-trans isomerase FKBP5 (Homo sapiens); test: Binding affinity to 15N-labeled FKBP51 (1 to 140 residues) (unknown origin) expressed in Escherichia coli OD2N assessed as induction of chemical shift perturbations by two-dimensional 1H/15N HSQC NMR spectroscopy

c1c[nH]cn1 [IMIDAZOLE]
Activity [1]: Active | Kd [2]: 4400 µM

O=C1CCCCN1
Kd [2]: 2800 µM | Activity [3]: Active

NC(=O)c1cccnc1
Activity [4]: inactive

Oc1ccccn1
Activity [1]: Active | Kd [2]: 1300 µM

O=C1CNC(=O)N1
Activity [4]: inactive

Cc1c[nH]cn1
Activity [1]: Active | Kd [2]: 2900 µM
